Drawing on US6413975B1, “Purine derivatives having phosphodiesterase iv inhibition activity” (Euro-Celtique, S.A., priority 1999, dated 2002), this text covers IC50 for 41 compounds.

Molecules are shown by their SMILES. Structures can show the parent of a compound that is named as a salt.

One assay deals with Type IV PDE. The experiment in a line: PDE IV inhibition: hydrolysis of [3H]-cyclic AMP by isolated Type IV PDE. The class given is biochemical, bovine. Particulars: adenines, Table 4; cyclic AMP 0.2 μM; read-out: calc PDE IV IC50. How it is done: The Type IV PDE is isolated from bovine tracheal smooth muscle using a procedure similar to that previously described by Silver, P. J., Hamel, L. T., Perrone, M. H. Bentley, R. G. Bushover, C. R., Evans, D. B.: Eur. J. Pharmacol. 150:85,1988.(1). Briefly, smooth muscle from bovine trachea is minced and homogenized using a polytron in 10 volumes of an extraction buffer containinhg 10 mM Tris-acetate (pH 7.5), 2 mM magnesium chloride, 1 mM dithiothreitol and 2,000 units/ml of aprotinin. This and all subsequent procedures are performed at 0-4° C. The homogenate is sonicated and then centrifiged at 48,000×g for 30 minutes. The resulting supernatant is applied to a DEAE Trisacryl M column previously equilibrated with sodium acetate and dithiothreitol. After applications of the sample, the column is washed with sodium acetate/dithiothreitol, after which the different forms of PDE are eluted from the column using a linear Tris-HCl/NaCl gradient. Fractions containing Type IV PDE are collected, dialyzed and concentrated to 14% of the original volume. The concentrated fractions are diluted to 50% with ethylene glycol and stored at -20° C.
Enzyme activity is assessed by measuring the hydrolysis of [^3H]-cyclic AMP, as described by Thompson, W. J., Teraski, W. L., Epstein, P. N., Strada, S. J.: Adv. Cyclic Nucleotide Res. 10:69, 1979. The cyclic AMP concentration used in this assay is 0.2 μM, which approximates the Km value. Protein concentration is adjusted to ensure that no more than 15% of the available substrate is hydrolyzed during the incubation period.
All test compounds are dissolved in dimethyl sulfoxide (final concentration of 2.5%). This concentration of dimethyl sulfoxide inhibits enzyme activity by approximately 10%.
With `CCn1cnc(NCc2ccccc2)c2nc(C3CCCC3)nc1-2` [3-ethyl-8-cyclopentyl-6-benzylamino-3H-purine hydrochloride], the IC50 was 62.4 µM.
With `CCNc1ncn(CC)c2nc(C3CCCC3)nc1-2` [3-ethyl-8-cyclopentyl-6-ethylamino-3H-purine hydrochloride], the IC50 is 28.3 µM.
Same read-out and setting: under `CCn1cnc(NCc2ccccc2)c2nc(C(C)C)nc1-2` [3-ethyl-8-isopropyl-6-benzylamino-3H-purine hydrochloride] stands 28.9 µM; under `CCNc1ncn(CC)c2nc(C(C)C)nc1-2` [3-ethyl-8-isopropyl-6-ethylamino-3H-purine hydrochloride], 52.2 µM.
As for `CCCCCCn1cnc(NC)c2ncnc1-2` [3-hexyl-6-methylamino-3H-purine hydrochloride], the IC50 is 34.1 µM.

Still in this assay, the particulars now being: adenines, Table 7; read-out: calc PDE IV IC50.
Take `CCNc1ncn(CCc2ccc(Cl)cc2)c2nc(C(C)C)nc1-2` [3-{2-(4-chlorophenyl)-ethyl]-6-ethylamino-8-isopropyl-3H-purine]: the IC50 is 4.46 µM.
Regarding `COc1ccc(Cn2cnc(N)c3nc(C(C)(C)OCc4ccc(F)cc4)nc2-3)cc1OC` [6-Amino-3-(3,4-dimethoxybenzyl)-8-(1-(4-fluorobenzyloxy-1-methyl-ethyl)-3H-purine Hydrochloride], the IC50 is 1.85 µM.
The same measure, in the same setting: under `C=C(C)c1nc2c(N)ncn(Cc3ccc(OC)c(OC)c3)c-2n1` [6-Amino-3-(3,4-dimethyoxybenzyl)-8-(1-methylethenyl)-3H-purine] stands 3.7 µM.
Regarding `C=C(C)c1nc2c(N)ncn(Cc3ccc(OC)c(OC4CCCC4)c3)c-2n1` [6-Amino-3-(3-cyclopentyloxy-4-methoxy-benzyl)-8-(1-methylethenyl)-3H-purine], the IC50 is 0.091 µM.
Take `COc1ccc(Cn2cnc(N)c3ncnc2-3)cc1OC1CCCC1` [6-Amino-3-(3-cyclopentyloxy-4-methoxybenzyl)-3H-purine]: the IC50 is 0.31 µM.
In the case of `COc1ccc(Cn2cnc(N)c3nc(C(C)(C)OCc4ccccc4)nc2-3)cc1OC` [6-Amino-8-(1-benzyloxy-1-methyl-ethyl)-3-(34-dimethoxybenzyl)-3H-purine Hydrochloride], the IC50 was 0.94 µM.
Consider `CCNc1ncn(Cc2cc[n+]([O-])cc2)c2nc(C(C)C)nc1-2` [6-Ethylamino-3-(1-oxopyridin-4-yl-methyl)-8-isopropyl-3H-purine], for which the IC50 was 385 µM.
As for `CCCCOc1cc(Cn2cnc(NCC)c3nc(C(C)C)nc2-3)ccc1OC` [6-Ethylamino-3-(3-butoxy-4-methoxy-benzyl)-8-isopropyl-3H purine], the IC50 is 1.4 µM.
Still for that read-out and setting: in the case of `CCNc1ncn(Cc2ccc(OC)c(OCC3CCN(C)CC3)c2)c2nc(C(C)C)nc1-2` [6-Ethylamino-3-[3-(1-methylpiperidin-4-yl-methoxy)-4-methoxy-benzy]-8-isopropyl-3H-purine] it was 6.6 µM; in that of `CCNc1ncn(Cc2ccc(OC)c(OC3CN4CCC3CC4)c2)c2nc(C(C)C)nc1-2` (centres unmarked) [6-Ethylamino-3-[3-(2,2,2)-azabicyclooctan-3-yloxy)-4-methoxy]-8-isopropyl-3H-purine], 2.05 µM.
Take `CCNc1ncn(Cc2ccc(OC)c(OCCN(C)C)c2)c2nc(C(C)C)nc1-2` [6-Ethylamino-3-[3-(2,2-dimethylaminoethoxy-4-methoxy)]-8-isopropyl-3H-purine]: the IC50 was 8.95 µM.
In the case of `CCNc1ncn(Cc2ccc(OC)c(OC3CCC(O)C3)c2)c2nc(C(C)(C)O)nc1-2` (centres unmarked) [6-Ethylamino-3-[3-(3-hydroxycyclopentyloxy)-4-methoxybenzyl)]-8-(1-hydroxy-1-methylethyl)-3H-purine], the IC50 was 2.6 µM.
Take `CCNc1ncn(Cc2ccc(OC)c(OCC3CCCC3)c2)c2nc(C(C)C)nc1-2` [6-Ethylamino-3-[3-cyclopentylmethoxy-4-methoxy-benzyl]-8-isopropyl-3H-purine]: the IC50 was 12.5 µM.
On the same count and under the same terms, in the case of `CCNc1ncn(Cc2ccc(OC)c(OCc3cc[n+]([O-])cc3)c2)c2nc(C(C)C)nc1-2` [6-Ethylamino-3-[(3-pyridin-4-yl-methoxy)N-oxide-4-methoxy]-8-isopropyl-3H-purine] it was 4.5 µM.
On to `CCNc1ncn(Cc2ccc(OC)c(O[C@@H]3C[C@H]4CC[C@@H](C3)N4C)c2)c2nc(C(C)C)nc1-2` [6-Ethylamino-3-[(exo-8-methyl-8-azabicyclo(3,2,1)-octan-3-yl-oxy)-4-methoxy-benzy]-8-isopropyl-3-H-purine], for which the IC50 was 6.02 µM.
Take `CCNc1ncn(Cc2ccc(OC)c(OCc3ccncc3)c2)c2nc(C(C)C)nc1-2` [6-Ethylamino-8-isopropyl-3-[3-(pyridin-4-yl-methoxy)-4-methoxy-benzyl]-3H-purine]: the IC50 is 24.5 µM.
Same read-out and setting: under `CC(C)c1nc2c(N)ncn(Cc3ccc4c(c3)OCO4)c-2n1` [6-amino-3(3,4-methylenedioxybenzyl)-8-isopropyl-3H-purine] stands 4.1 µM; under `COc1ccc(Cn2cnc(N)c3nc(C(C)C)nc2-3)cc1OC` [6-amino-3-(3,4-dimethoxybenzyl)-8-isopropyl-3H-purine], 0.92 µM; under `CC(C)(OCc1ccc(F)cc1)c1nc2c(N)ncn(Cc3ccc4c(c3)OCO4)c-2n1` [6-amino-3-(3,4-methylenedioxybenzyl)-8-[1-(4-fluorobenzyloxy)-1-methyl-ethyl]-3H-purine], 0.72 µM.
On to `COc1ccc(Cn2cnc(N)c3nc(C(C)C)nc2-3)cc1O` [6-amino-3-(3-hydroxy-4-methoxy)-benzyl)-8-isopropyl-3H-purine], for which the IC50 was 15.1 µM.
For `CC(C)c1nc2c(N)ncn(Cc3ccc(Cl)cc3)c-2n1` [6-amino-3-(4-chlorobenzyl)-8-isopropyl-3H-purine], the IC50 is 20.8 µM.
`COc1ccc(Cn2cnc(N)c3nc(C(C)C)nc2-3)cc1OCc1ccccc1` [6-amino-3-((3-benzyloxy-4-methoxy)-bezyl)-8-isopropyl-3H-purine]: the IC50 is 6.4 µM.
Same read-out and setting: under `COc1ccc(Cn2cnc(N)c3nc(C(C)(C)O)nc2-3)cc1OCCCCO` [6-amino-3-[3-(4-hydroxybutoxy-4-methoxy)benzyl]-8-(1-hydroxy-1-methylethyl)-3H-purine hydrochloride] stands 17.1 µM; under `COc1ccc(Cn2cnc(N)c3nc(C(C)(C)OCc4ccccc4)nc2-3)cc1OCc1ccccc1` [6-amino-3-[(3-benzyloxy-4-methoxy)benzyl]-8-[(1-benzyloxy-1-methyl)ethyl]-3H-purine], 3.12 µM; under `COc1ccc(Cn2cnc(N)c3nc(C(C)(C)O)nc2-3)cc1OC1CCCC1` [6-amino-3-[(3-cyclopentyloxy-4-methoxy)benzyl]-8-[(1-hydroxy-1-methyl)ethyl]-3H-purine], 0.25 µM.
Turning to `CC(C)c1nc2c(N)ncn(CC3CCCC3)c-2n1` [6-amino-3-cyclopentylmethyl-8-isopropyl-3H-purine], the IC50 is 23.2 µM.
Take `COc1ccc(Cn2cnc(N)c3nc(C(C)C)nc2-3)cc1OCCCCO` [6-amino-8-isopropyl-3-[(4-methoxy-3-([(4-hydroxybutoxy))benzyl]-3H-purine]: the IC50 is 4.2 µM.

The same assay, now with this note: dithioxanthines, Table 5; read-out: IC50 PDE IV.
`CCn1c(=S)[nH]c(=S)c2[nH]c(C(C)C)nc21` [3-ethyl-3,7-dihydro-8-isopropyl-2,6-dithio-1H-purine-2,6-dione]: the IC50 was 4.1 µM.

The assay is the same for the next values; noted with them: read-out: PDE IV I50.
Take `CCCn1cnc(NC2CCCC2)c2nc(C3CC3)nc1-2` [6-Cyclopentylamino-8-cyclopropyl-3-propyl-3H-purine Hydrochloride]: the IC50 came out at 0.03 µM.
Same read-out and setting: under `CCCn1c(=S)nc(NC2CCCC2)c2[nH]c(C3CC3)nc21` [6-cyclopentylamino-8-cyclopropyl-3,7-dihydro-3-propyl-2-thio-2H-purin-2-one hydrochloride] stands 7.41 µM.

Staying with this assay, now noted: thioisoguanines, Table 2; cyclic AMP 0.2 μM; read-out: Calc IC50 PDE IV.
Turning to `CCn1c(=S)nc(NC2CCCC2)c2[nH]c(C(C)C)nc21` [3-ethyl-6-cyclopentylamino-3,7-dihydro-8-isopropyl-2-thio-2H-purin-2-one], the IC50 was 9.4 µM.
Regarding `CCn1c(=S)nc(NC2CCCC2)c2[nH]c(C3CC3)nc21` [3-ethyl-6-cyclopentylamino-8-cyclopropyl-3,7-dihydro-2-thio-2H-purin-2-one], the IC50 is 0.19 µM.
Still for that read-out and setting: in the case of `CCCn1c(=S)nc(N)c2[nH]c(C3CC3)nc21` [6-amino-8-cyclopropyl-3,7-dihydro-3 propyl-2-thio-2H-purin-2-one] it was 39.4 µM; in that of `CCCn1c(=S)nc(NCc2ccccc2)c2[nH]c(C3CC3)nc21` [6-benzylamino-8-(cyclopropyl)-3,7-dihydro-3-propyl-2-thio-2H-purin-2-one hydrochloride], 33.6 µM; in that of `CCCCNc1nc(=S)n(CCC)c2nc(C3CC3)[nH]c12` [6-butylamino-8-cyclopropyl-3,7-dihydro-3-propyl-2-thio-2H-purin-2-one], 24.5 µM.
Same read-out and setting: in the case of `CCCn1c(=S)nc(NC2CCCC2)c2[nH]c(C(C)C)nc21` [6-cyclopentylamino-3,7-dihydro-8-isopropyl-3-propyl-2-thio-2H-purin-2-one] it was 45.1 µM.
